In PMC10458458, “Characterization of Anticancer Effects of the Analogs of DJ4, a Novel Selective Inhibitor of ROCK and MRCK Kinases” (Pharmaceuticals, 2023):

Test system: A549 lung cancer cells
Assay: Colony forming assay
Assay type: cell-based, human
Conditions: then 14 days treatment-free, relative to control
Procedure: Figure 2 DJ4 reduces cell survival and inhibits colony forming ability of the cancer cells. (A) Different NSCLC cells were plated in a 96-well plate to confluence and then treated for 72 h. Cytotoxicity was assessed by MTT assay. The error bars indicate SEM of triplicates. (B) To assess cytotoxicity of DJ4 in breast cancer cells, MDA-MB-231 cells were treated for 24 h with indicated concentrations of DJ4. Percentage of live cells were counted using Muse^TM Live/Dead reagent and analyzed by Muse^TM cell analyzer. Error bars indicate SEM. n = 2. * p < 0.05. (C) DJ4 inhibits colony forming ability of A549 cells treated for 48 h. After a 48-h treatment, cells were seeded with number of cells mentioned in the table and were allowed to grow and form colonies. At the end of 14 days, colonies were stained and counted. Percent surviving fraction was calculated. The figure is the representative of the replicates. (D) The data are summarized in the table and represent the average of three replicates. TEXT PRINTED IN THE PICTURE: (D) DJ4: Surviving Fraction after 14 days (%): 2.3 (Concentration: 2.5μM; Number of cells plated: 2000; SEM: 0.1); Surviving Fraction after 14 days (%): 0.4 (Concentration: 5μM; Number of cells plated: 4000; SEM: 0.0); Surviving Fraction after 14 days (%): 0.1 (Concentration: 10μM; Number of cells plated: 8000; SEM: 0.0)
To further determine the effects of DJ4 on cell proliferation, we performed colony forming assays in A549 lung cancer cells. Forty-eight hours after the treatment with 2.5, 5.0, and 10 µM DJ4, individual cells were re-plated at low seeding density and colony formation was monitored for 14 days. The percent surviving fraction of cells relative to control cells that formed the distinct colonies were 2.3%, 0.4%, and 0.1% at 2.5, 5.0, and 10 µM, respectively, after 14 days of growth in a treatment-free culture medium (Figure 2C,D).

## O=C1N/C(=N\CCc2ccccc2)S/C1=C/c1c[nH]c2ncccc12 [DJ4]
A549, 2.5 µM for 48 h
  Surviving Fraction after 14 days: 2.3%
A549, 5.0 µM for 48 h
  Surviving Fraction after 14 days: 0.4%
A549, 10 µM for 48 h
  Surviving Fraction after 14 days: 0.1%
